{
  "source": "patent US9556113B2",
  "about": "“Combination uses of dichloroacetate and oxamate, and their prodrugs, for cancer treatment” (The South Dakota Board of Regents, priority 2014, dated 2017)",
  "test_system": "E6E7/Ras cells",
  "test": "Extracellular acidification rate (ECAR), Seahorse XF24",
  "format": "cell-based, mouse",
  "conditions": "added at point B with additional glucose",
  "description": "FIG. 6 illustrates the reduction of extracellular acidification rate (ECAR) by prodrugs AT-N4-001 and AT-N4-002. (A) ECAR was measured using a Seahorse XF24 instrument. At time point A glucose was added to the cultures. At time point B the indicated drugs were added with additional glucose. At time point C 2-deoxyglucose was added to block glycolysis. (B) Bar graph of ECAR at the time point indicated as Rate 8 in A.\nAT-N4-001 and AT-N4-002 should each release two molecules of DCA and one molecule of oxamate. Both DCA and oxamate are expected to reduce cellular lactate production. Therefore, we examined the changes in lactate after treatment of E6E7/Ras cells with the prodrugs. E6E7/Ras cells were seeded into 100 mm dishes and the next day treated with 5 mM AT-N4-001, 5 mM AT-N4-002, 5 mM DCA plus 5 mM oxamate, or 5 mM DCA alone. Culture medium was collected after 4 hours of treatment and lactate levels were determined (FIG. 5). […] To confirm the effects of these compounds on lactate production, the extra cellular acidification rate (ECAR) was measured using a Seahorse XF24 Extracellular Flux analyzer. Since lactate is transported from cells together with a proton, acidification of the culture medium (ECAR) is an estimate of lactate production and the glycolytic rate of cells. In the experiment shown in FIG. 6A, ECAR measurements were initiated in the absence of glucose. […]",
  "data": [
    {"smiles": "NC(=O)C(=O)OCC(COC(=O)C(Cl)Cl)OC(=O)C(Cl)Cl", "note": "(stereo not shown) [AT-N4-002, 3-(2-amino-2-oxoacetoxy)propane-1,2-diyl bis(2,2-dichloroacetate)]", "values": [
      {"measurement": "increase in ECAR after glucose addition (FIG. 6)", "value": "completely blocked"}
    ]}
  ]
}
